Experimental data published in ChEMBL document CHEMBL1201862, “PubChem BioAssay data set” (2004).
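The compound was tested at five concentrations on cells cultured in 96-well plates, with a 48-hour exposure period. GI50 is the concentration that inhibits growth by half.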 Active and inactive are the calls of the source. Cut-off read from the data, not from the text of the source: active = GI50 up to about 1.1 µM and inactive = higher.

Experiments:
Assay in all cases: NCI tumour cell line growth inhibition, 48 h
SR = tested on: SR
LOX IMVI = tested on: LOX IMVI
RPMI-8226 = tested on: RPMI-8226
HCT-15 = tested on: HCT-15
BT-549 = tested on: BT-549
CAKI-1 = tested on: CAKI-1
MDA-N = tested on: MDA-N
HL-60 = tested on: HL-60
TK-10 = tested on: TK-10
UACC-257 = tested on: UACC-257
OVCAR-5 = tested on: OVCAR-5
SK-MEL-28 = tested on: SK-MEL-28
UACC-62 = tested on: UACC-62
HT-29 = tested on: HT-29
NCI-H226 = tested on: NCI-H226
HCT-116 = tested on: HCT-116
SN12C = tested on: SN12C
PC-3 = tested on: PC-3
SF-268 = tested on: SF-268
Hs-578T = tested on: Hs-578T
IGROV-1 = tested on: IGROV-1
OVCAR-8 = tested on: OVCAR-8
SNB-75 = tested on: SNB-75
T47D = tested on: T47D
A549 = tested on: A549
SF-539 = tested on: SF-539
UO-31 = tested on: UO-31
DU-145 = tested on: DU-145
SK-MEL-2 = tested on: SK-MEL-2
NCI-H23 = tested on: NCI-H23
HOP-62 = tested on: HOP-62
HOP-92 = tested on: HOP-92
MDA-MB-231 = tested on: MDA-MB-231
ACHN = tested on: ACHN
MDA-MB-435 = tested on: MDA-MB-435
K562 = tested on: K562
786-0 = tested on: 786-0
EKVX = tested on: EKVX
MOLT-4 = tested on: MOLT-4
MCF7 = tested on: MCF7
M14 = tested on: M14
SF-295 = tested on: SF-295
CCRF-CEM = tested on: CCRF-CEM
NCI-H460 = tested on: NCI-H460
OVCAR-3 = tested on: OVCAR-3
NCI/ADR-RES = tested on: NCI/ADR-RES
SK-MEL-5 = tested on: SK-MEL-5
KM12 = tested on: KM12
SNB-19 = tested on: SNB-19
SK-OV-3 = tested on: SK-OV-3
A498 = tested on: A498
COLO 205 = tested on: COLO 205
U-251 = tested on: U-251
SW-620 = tested on: SW-620
Malme-3M = tested on: Malme-3M
HCC 2998 = tested on: HCC 2998
OVCAR-4 = tested on: OVCAR-4
NCI-H522 = tested on: NCI-H522

With `O=c1n(/N=C/c2ccccc2)c(=O)n2n1C1C=CC2CC1` the GI50 (SR) was > 100 µM (inactive), the GI50 (LOX IMVI) was > 100 µM (inactive) and the GI50 (RPMI-8226) was > 100 µM (inactive). For the same molecule, the GI50 (HCT-15) was > 100 µM, the GI50 (BT-549) was > 100 µM (inactive) and the GI50 (CAKI-1) was > 100 µM (inactive). The GI50 (MDA-N) was > 100 µM (inactive), the GI50 (HL-60) was > 100 µM (inactive) and the GI50 (TK-10) was > 100 µM (inactive). The GI50 (UACC-257) was > 100 µM (inactive), the GI50 (OVCAR-5) was > 100 µM (inactive) and the GI50 (SK-MEL-28) was > 100 µM (inactive). For the same molecule, the GI50 (UACC-62) was > 100 µM (inactive), the GI50 (HT-29) was > 100 µM (inactive) and the GI50 (NCI-H226) was > 100 µM (inactive). The GI50 (HCT-116) was > 100 µM (inactive), the GI50 (SN12C) was > 100 µM (inactive) and the GI50 (PC-3) was > 100 µM (inactive). The GI50 (SF-268) was > 100 µM (inactive), the GI50 (Hs-578T) was > 100 µM (inactive) and the GI50 (IGROV-1) was > 100 µM (inactive). For the same molecule, the GI50 (OVCAR-8) was > 100 µM (inactive), the GI50 (SNB-75) was > 100 µM (inactive) and the GI50 (T47D) was > 100 µM (inactive). The GI50 (A549) was > 100 µM (inactive), the GI50 (SF-539) was > 100 µM (inactive) and the GI50 (UO-31) was > 100 µM (inactive). The GI50 (DU-145) was > 100 µM (inactive), the GI50 (SK-MEL-2) was > 100 µM (inactive) and the GI50 (NCI-H23) was > 100 µM (inactive). The GI50 (HOP-62) was > 100 µM (inactive), the GI50 (HOP-92) was > 100 µM (inactive) and the GI50 (MDA-MB-231) was > 100 µM (inactive). The GI50 (ACHN) was > 100 µM (inactive), the GI50 (MDA-MB-435) was > 100 µM (inactive) and the GI50 (K562) was > 100 µM (inactive). The GI50 (786-0) was > 100 µM (inactive), the GI50 (EKVX) was > 100 µM (inactive) and the GI50 (MOLT-4) was > 100 µM (inactive). For the same molecule, the GI50 (MCF7) was > 100 µM (inactive), the GI50 (M14) was > 100 µM (inactive) and the GI50 (SF-295) was > 100 µM (inactive). For the same molecule, the GI50 (CCRF-CEM) was > 100 µM (inactive), the GI50 (NCI-H460) was > 100 µM (inactive) and the GI50 (OVCAR-3) was > 100 µM (inactive). The GI50 (NCI/ADR-RES) was > 100 µM (inactive), the GI50 (SK-MEL-5) was > 100 µM (inactive) and the GI50 (KM12) was > 100 µM (inactive). For the same molecule, the GI50 (SNB-19) was > 100 µM (inactive), the GI50 (SK-OV-3) was > 100 µM (inactive) and the GI50 (A498) was > 100 µM (inactive). The GI50 (COLO 205) was > 100 µM (inactive), the GI50 (U-251) was > 100 µM (inactive) and the GI50 (SW-620) was > 100 µM (inactive).

`CCCCCCCNC(P(=O)(O)O)P(=O)(O)O` was tested, and the GI50 (SR) was > 100 µM (inactive), the GI50 (LOX IMVI) was > 100 µM (inactive) and the GI50 (RPMI-8226) was 62.8 µM (inactive). For the same molecule, the GI50 (Malme-3M) was > 100 µM (inactive), the GI50 (HCT-15) was > 100 µM and the GI50 (BT-549) was > 100 µM (inactive). The GI50 (CAKI-1) was > 100 µM (inactive), the GI50 (MDA-N) was > 100 µM (inactive) and the GI50 (HL-60) was > 100 µM (inactive). The GI50 (TK-10) was > 100 µM (inactive), the GI50 (UACC-257) was > 100 µM (inactive) and the GI50 (OVCAR-5) was > 100 µM (inactive). The GI50 (HCC 2998) was 56.2 µM (inactive), the GI50 (SK-MEL-28) was > 100 µM (inactive) and the GI50 (UACC-62) was > 100 µM (inactive). For the same molecule, the GI50 (HT-29) was 54.7 µM (inactive), the GI50 (NCI-H226) was > 100 µM (inactive) and the GI50 (HCT-116) was > 100 µM (inactive). For the same molecule, the GI50 (SN12C) was > 100 µM (inactive), the GI50 (PC-3) was > 100 µM (inactive) and the GI50 (SF-268) was > 100 µM (inactive). For the same molecule, the GI50 (Hs-578T) was 34 µM (inactive), the GI50 (IGROV-1) was > 100 µM (inactive) and the GI50 (OVCAR-8) was > 100 µM (inactive). The GI50 (SNB-75) was 8.2 µM (inactive), the GI50 (T47D) was > 100 µM (inactive) and the GI50 (A549) was > 100 µM (inactive). For the same molecule, the GI50 (SF-539) was > 100 µM (inactive), the GI50 (UO-31) was > 100 µM (inactive) and the GI50 (DU-145) was > 100 µM (inactive). For the same molecule, the GI50 (SK-MEL-2) was > 100 µM (inactive), the GI50 (NCI-H23) was > 100 µM (inactive) and the GI50 (HOP-62) was > 100 µM (inactive). The GI50 (HOP-92) was > 100 µM (inactive), the GI50 (MDA-MB-231) was > 100 µM (inactive) and the GI50 (ACHN) was > 100 µM (inactive). The GI50 (MDA-MB-435) was > 100 µM (inactive), the GI50 (K562) was > 100 µM (inactive) and the GI50 (786-0) was > 100 µM (inactive). The GI50 (EKVX) was > 100 µM (inactive), the GI50 (MOLT-4) was > 100 µM (inactive) and the GI50 (MCF7) was > 100 µM (inactive). For the same molecule, the GI50 (M14) was > 100 µM (inactive), the GI50 (SF-295) was > 100 µM (inactive) and the GI50 (CCRF-CEM) was > 100 µM (inactive). The GI50 (NCI-H460) was > 100 µM (inactive), the GI50 (OVCAR-3) was > 100 µM (inactive) and the GI50 (OVCAR-4) was > 100 µM (inactive). The GI50 (NCI/ADR-RES) was > 100 µM (inactive), the GI50 (SK-MEL-5) was 97.3 µM (inactive) and the GI50 (KM12) was > 100 µM (inactive). The GI50 (SNB-19) was > 100 µM (inactive), the GI50 (SK-OV-3) was > 100 µM (inactive) and the GI50 (A498) was > 100 µM (inactive). For the same molecule, the GI50 (COLO 205) was > 100 µM (inactive), the GI50 (NCI-H522) was > 100 µM (inactive) and the GI50 (U-251) was > 100 µM (inactive). For the same molecule, the GI50 (SW-620) was > 100 µM (inactive).
